Bounds are passed on as bounds.

We go through six compounds from patent US20090275586A1, “HETEROCYCLIC INHIBITORS OF PDE4” (KALYPSYS, INC., priority 2006, published 2009).

Test [1] has as its system PDE4. Kind of test: PDE4 Cellular CNG Assay. The test is classed as cell-based. The conditions noted are these: Activity at 10 μM; HEK293 cells stably expressing the CNG channel. The source says: Compounds may be screened for functional potency in in vitro cellular assays for their ability to inhibit the activity of phosphodiesterase (PDE) enzymes. A commercial membrane potential assay, Molecular Device's membrane potential assay kit, was modified and utilized to measure the inhibitory activity of compounds on PDE isoforms in living cells. The cellular assay utilizes genetically engineered cyclic nucleotide-gated (CNG) channels as cyclic-AMP (cAMP) sensors. On binding cAMP these ion channels open, allowing the flow of cations across the plasma membrane. CNG channel activity can be monitored by measuring Ca^2+ influx in cell populations. The influx of Ca causes a change in membrane potential that is measured by voltage sensitive dyes. PDE inhibitors prevent the degradation of cAMP that is generated by adenylyl cyclases that are activated upon stimulation of G protein-coupled receptors (GPCR) linked to the cAMP pathway. In brief, Molecular Device's membrane potential dye was added to HEK293 cells stably expressing the CNG channel and incubated for 2 hours at room temperature. Test compounds were then added to the cells and incubated for 15 minutes. A GPCR agonist was then added to the cells to stimulate the cAMP pathway and incubated for 45 minutes. Fluorescent measurements were then conducted with either the Molecular Devices Acquest or Analyst. PDE inhibitors will inhibit the degradation of cAMP and cause an increase in fluorescent signal. Roflumilast and Rolipram are the positive controls used in the assay.

In test [2] the target is T1, PDE4B (Homo sapiens, UniProt Q07343).
T1 construct: hexa-histidine (His6) (N); made in house
T1 sequence (Q07343 330-659 limits assumed, species assumed): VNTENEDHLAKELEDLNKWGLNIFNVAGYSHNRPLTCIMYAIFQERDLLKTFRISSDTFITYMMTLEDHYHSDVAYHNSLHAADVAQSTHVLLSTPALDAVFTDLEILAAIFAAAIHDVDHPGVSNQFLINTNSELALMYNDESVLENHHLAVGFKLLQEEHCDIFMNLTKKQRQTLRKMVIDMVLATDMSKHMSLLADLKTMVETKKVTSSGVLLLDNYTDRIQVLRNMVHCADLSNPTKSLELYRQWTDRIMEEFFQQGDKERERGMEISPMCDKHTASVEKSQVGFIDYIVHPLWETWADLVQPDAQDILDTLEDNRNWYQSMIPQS
The test can be described thus: PDE4 IMAP Assay. The test is classed as biochemical. The following applies: 2 h; Activity at 10 μM; catalytic domain of PDE4B; read-out: PDE IMAP Assay. The source says: Compounds may be screened for functional potency in in vitro biochemical assays for their ability to inhibit the activity of phosphodiesterase (PDE) enzymes. A commercial PDE assay, Molecular Device's PDE IMAP assay, was modified and utilized to measure the inhibitory activity of compounds on PDE isoforms. The IMAP technology is based on the high affinity binding of phosphate by immobilized metal (MIII) coordination complexes on nanoparticles. This IMAP “binding reagent” complexes with phosphate groups on the nucleotide monophosphates generated in the reaction. Such binding causes a change in the rate of the molecular motion of the nucleotide, and results in an increase in the fluorescence polarization value observed for the fluorescent label attached to the substrate. PDE inhibitors prevent the generation of nucleotide monophosphates and the subsequent increase in polarization value observed for the fluorescent label attached to the substrate. The catalytic domain of PDE4B was fused to an amino-terminus hex-histadine affinity tag and purified. PDE4B enzyme was incubated with compounds for 10 minutes. Fluorescently labeled cyclic AMP substrates were then added to the PDE enzyme mix and incubated for 2 hours at room temperature. IMAP binding reagent was then added to the enzyme mix, incubated for 10-30 minutes and fluorescent polarization of the fluorescently labeled substrate was read either with the Perkin Elmer Viewlux or Molecular Devices Acquest or Analyst. Roflumilast and Rolipram are the positive controls used in the assay.

The subject of test [3] is recombinant human PDE4. The conditions noted are these: reported value; read-out: IC50 with respect to inhibiting recombinant human PDE4; cited from earlier work.

As to `Cc1c(Cc2ccccc2)c(N2CCNCC2)n2c(nc3ccccc32)c1C#N` [Example 25, 2-Benzyl-3-methyl-1-piperazin-1-yl-benzo[4,5]imidazo[2-a]pyridine-4-carbonitrile], in test [1], the “Cellular CNG Assay” value was “− (−indicates Activity < 50% at 10 μM)”. In test [2], the inhibition at 10 µM is at least 50%.
On the same counts, the results for `CC(C)CCn1c(=O)c2ccccc2n2c(CN3CCN(c4ncccn4)CC3)nnc12` [Example 26, 4-Isopentyl-1-((4-(pyrimidin-2-yl)piperazin-1-yl)methyl)-[1,2,4]triazolo[4,3-a]quinazolin-5(4H)-one] are “+ (+indicates Activity ≧ 50% at 10 μM)” and at least 50%.
On the same counts, the results for `COc1ccccc1Cn1c(=O)c2cccnc2n(Cc2ccccc2F)c1=O` [Example 27, 1-(2-Fluorobenzyl)-3-(2-methoxybenzyl)pyrido[2,3-d]pyrimidine-2,4(1H,3H)-dione] are “+ (+indicates Activity ≧ 50% at 10 μM)” and at least 50%.
For `C/C(NCCO)=C1\C(=O)N(c2nc3ccccc3s2)N=C1c1ccccc1` [Example 28, (E)-1-(Benzo[d]thiazol-2-yl)-4-(1-(2-hydroxyethylamino)ethylidene)-3-phenyl-1H-pyrazol-5(4H)-one], the “Cellular CNG Assay” value in test [1] was “+ (+indicates Activity ≧ 50% at 10 μM)”. Besides, in test [2], the inhibition at 10 µM was at least 50%.
In the case of `CCOC(=O)C1=C(C)N(CC(C)C)C(=O)/C1=C\c1ccc(OC)c(OC)c1` [Example 29, (Z)-Ethyl 4-(3,4-dimethoxybenzylidene)-1-isobutyl-2-methyl-5-oxo-4,5-dihydro-1H-pyrrole-3-carboxylate], the “Cellular CNG Assay” value in test [1] was “+ (+indicates Activity ≧ 50% at 10 μM)”. The inhibition at 10 µM in test [2] is at least 50%.
As for `COc1ccc(C2CNC(=O)C2)cc1OC1CCCC1` (centres unmarked) [rolipram], the IC50 (as a rule, the point on the concentration scale where inhibition reaches its midpoint) in test [3] was around 200 nM.
